We go through two compounds from BindingDB's records for doi:10.1021/acs.jmedchem.9b01227 (Johann Wolfgang Goethe-University, 2019).

The test concerns the target Mitogen-activated protein kinase kinase kinase 20 (ZAK) (Homo sapiens) (UniProt Q9NYL2). Put plainly: Inhibition of ZAK (unknown origin) expressed in human HEK293 cells incubated for 2 hrs followed by NanoBRET NanoGlo Substrate addition by NanoBRET assay. (In general: In BRET a luciferase serves as donor, and the signal depends on an acceptor being close.)

Sequence of Mitogen-activated protein kinase kinase kinase 20 (ZAK) (Homo sapiens) (Q9NYL2 whole entry, looked up): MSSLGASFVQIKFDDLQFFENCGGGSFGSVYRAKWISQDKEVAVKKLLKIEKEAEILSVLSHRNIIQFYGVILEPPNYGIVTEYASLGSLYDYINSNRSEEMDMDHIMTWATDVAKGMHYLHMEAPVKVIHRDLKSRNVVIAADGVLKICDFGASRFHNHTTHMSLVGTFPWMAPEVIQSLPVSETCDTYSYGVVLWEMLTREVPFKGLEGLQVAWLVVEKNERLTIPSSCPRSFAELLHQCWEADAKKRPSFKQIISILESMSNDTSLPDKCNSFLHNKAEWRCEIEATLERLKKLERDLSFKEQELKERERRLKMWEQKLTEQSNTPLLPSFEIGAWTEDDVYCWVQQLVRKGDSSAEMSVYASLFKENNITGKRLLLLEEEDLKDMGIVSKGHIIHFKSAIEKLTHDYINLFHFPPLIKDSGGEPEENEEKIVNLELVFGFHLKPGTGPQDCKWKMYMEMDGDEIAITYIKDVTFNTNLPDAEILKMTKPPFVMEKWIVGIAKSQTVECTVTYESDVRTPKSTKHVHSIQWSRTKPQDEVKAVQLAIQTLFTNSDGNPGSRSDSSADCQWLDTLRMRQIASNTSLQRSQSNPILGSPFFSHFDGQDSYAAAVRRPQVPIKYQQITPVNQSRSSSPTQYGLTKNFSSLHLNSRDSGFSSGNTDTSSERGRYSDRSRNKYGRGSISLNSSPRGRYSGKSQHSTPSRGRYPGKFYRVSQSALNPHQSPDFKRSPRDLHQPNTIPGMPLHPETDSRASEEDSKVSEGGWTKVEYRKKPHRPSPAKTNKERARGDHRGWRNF

As to `Nc1c(C(=O)NCc2ccc(C(=O)NCCCC3CCCCC3)cc2)cnn1-c1ccccc1`, the IC50 – broadly, the concentration at which inhibition is half-maximal – worked out at 0.91 µM.
Next, `O=C(NCCCC1CCCCC1)c1ccc(CNC(=O)c2cnn(-c3ccccc3)c2C(F)(F)F)cc1`: 5.8 µM.
